Source: PubChem BioAssay (NCI)
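96-well plates; 48 h exposure; 5 concentrations. Endpoints by linear interpolation between flanking doses. Not reached: highest tested concentration assigned. GI50 marks 50% less growth. Definition used: TGI = concentration required for complete inhibition of growth.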

Experiments:
Test in all cases: NCI anticancer screen, dose series, 48 h
[1] = system: NCI/ADR-RES ovarian
[2] = system: DU-145 prostate
[3] = system: NCI-H226 lung
[4] = system: RXF 393 renal
[5] = system: SN12C renal
[6] = system: UO-31 renal
[7] = system: OVCAR-8 ovarian
[8] = system: HT29 colon
[9] = system: KM12 colon
[10] = system: HCT-116 colon
[11] = system: ACHN renal
[12] = system: PC-3 prostate
[13] = system: M14 melanoma
[14] = system: SW-620 colon
[15] = system: IGROV1 ovarian
[16] = system: SF-295 CNS
[17] = system: SNB-75 CNS
[18] = system: MDA-N
[19] = system: A498 renal
[20] = system: CAKI-1 renal
[21] = system: U251 CNS
[22] = system: EKVX NSCLC
[23] = system: SF-539 CNS
[24] = system: SK-MEL-5 melanoma
[25] = system: OVCAR-4 ovarian
[26] = system: SK-MEL-28 melanoma
[27] = system: SNB-19 CNS
[28] = system: A549 NSCLC
[29] = system: NCI-H23 lung
[30] = system: MDA-MB-231 breast
[31] = system: COLO 205 colon
[32] = system: SF-268 CNS
[33] = system: OVCAR-3 ovarian
[34] = system: TK-10 renal
[35] = system: OVCAR-5 ovarian
[36] = system: MDA-MB-435
[37] = system: HOP-92 NSCLC
[38] = system: HCT-15 colon
[39] = system: HOP-62 NSCLC
[40] = system: HCC-2998 colon
[41] = system: LOX IMVI melanoma
[42] = system: UACC-257 melanoma
[43] = system: K-562 leukemia
[44] = system: 786-0 renal
[45] = system: MOLT-4 leukemia
[46] = system: MCF7 breast
[47] = system: T-47D breast
[48] = system: SR leukemia
[49] = system: MALME-3M melanoma
[50] = system: UACC-62 melanoma
[51] = system: RPMI-8226 leukemia
[52] = system: CCRF-CEM leukemia
[53] = system: HL-60(TB) leukemia
[54] = system: SK-OV-3 ovarian
[55] = system: BT-549 breast
[56] = system: NCI-H460 lung
[57] = system: HS 578T breast
[58] = system: NCI-H522 lung
[59] = system: SK-MEL-2 melanoma

## CSc1ccc(C(=C=C=C(c2ccc(SC)s2)c2ccc(SC)s2)c2ccc(SC)s2)s1
[1]
  TGI: > 10 µM
[2]
  TGI: > 10 µM
[3]
  TGI: > 10 µM
[4]
  TGI: > 10 µM
[5]
  TGI: > 10 µM
[6]
  TGI: > 10 µM
[7]
  TGI: > 10 µM
[8]
  TGI: > 10 µM
[9]
  TGI: > 10 µM
[10]
  TGI: > 10 µM
[11]
  TGI: > 10 µM
[12]
  TGI: > 10 µM
[13]
  TGI: > 10 µM
[14]
  TGI: > 10 µM
[15]
  TGI: > 10 µM
[16]
  TGI: > 10 µM
[17]
  TGI: > 10 µM
[18]
  TGI: > 10 µM
[19]
  TGI: > 10 µM
[20]
  TGI: > 10 µM
[21]
  TGI: > 10 µM
[22]
  TGI: > 10 µM
[23]
  TGI: > 10 µM
[24]
  TGI: > 10 µM
[25]
  TGI: > 10 µM
[26]
  TGI: > 10 µM
[27]
  TGI: > 10 µM
[28]
  TGI: > 10 µM
[29]
  TGI: > 10 µM
[30]
  TGI: > 10 µM
[31]
  TGI: > 10 µM
[32]
  TGI: > 10 µM
[33]
  TGI: > 10 µM
[34]
  TGI: > 10 µM
[35]
  TGI: > 10 µM
[36]
  TGI: > 10 µM
[37]
  TGI: > 10 µM
[38]
  TGI: > 10 µM

## CCSc1[nH]c(NC(=S)NC(=O)c2ccccc2Cl)c(C(N)=O)c1C(N)=O
[39]
  TGI: > 10 µM
[2]
  TGI: > 10 µM
[4]
  TGI: > 10 µM
[5]
  TGI: > 10 µM
[40]
  TGI: > 10 µM
[41]
  TGI: > 10 µM
[42]
  TGI: > 10 µM
[7]
  TGI: > 10 µM
[8]
  TGI: > 10 µM
[43]
  TGI: > 10 µM
[9]
  TGI: > 10 µM
[44]
  TGI: > 10 µM
[45]
  TGI: > 10 µM
[12]
  TGI: > 10 µM
[13]
  TGI: > 10 µM
[14]
  TGI: > 10 µM
[15]
  TGI: > 10 µM
[16]
  TGI: > 10 µM
[46]
  TGI: > 10 µM
[17]
  TGI: > 10 µM
[18]
  TGI: > 10 µM
[20]
  TGI: > 10 µM
[22]
  TGI: > 10 µM
[47]
  TGI: > 10 µM
[48]
  TGI: > 10 µM
[49]
  TGI: > 10 µM
[24]
  TGI: > 10 µM
[25]
  TGI: > 10 µM
[50]
  TGI: > 10 µM
[26]
  TGI: > 10 µM
[51]
  TGI: > 10 µM
[28]
  TGI: > 10 µM
[52]
  TGI: > 10 µM
[29]
  TGI: > 10 µM
[30]
  TGI: > 10 µM
[31]
  TGI: > 10 µM
[53]
  TGI: > 10 µM
[32]
  TGI: > 10 µM
[34]
  TGI: > 10 µM
[36]
  TGI: > 10 µM
[54]
  TGI: > 10 µM
[37]
  TGI: > 10 µM
[38]
  TGI: > 10 µM

## Cc1nn2c(/C=C3\C(=O)Nc4ccc(Cl)cc43)c(C)nc2s1
[1]
  GI50: 15.8 µM
  TGI: > 100 µM
[39]
  GI50: 61.1 µM
  TGI: > 100 µM
[2]
  GI50: 86.5 µM
  TGI: > 100 µM
[3]
  GI50: > 100 µM
  TGI: > 100 µM
[4]
  GI50: > 100 µM
  TGI: > 100 µM
[5]
  GI50: > 100 µM
  TGI: > 100 µM
[40]
  GI50: 26.2 µM
  TGI: > 100 µM
[41]
  GI50: 83.1 µM
  TGI: > 100 µM
[42]
  GI50: > 100 µM
  TGI: > 100 µM
[6]
  GI50: 34.6 µM
  TGI: > 100 µM
[7]
  GI50: 84.3 µM
  TGI: > 100 µM
[8]
  GI50: 5.16 µM
  TGI: > 100 µM
[43]
  GI50: 5.43 µM
  TGI: > 100 µM
[9]
  GI50: 6.84 µM
  TGI: > 100 µM
[10]
  GI50: 30.2 µM
  TGI: > 100 µM
[11]
  GI50: 72.9 µM
  TGI: > 100 µM
[44]
  GI50: 33.7 µM
  TGI: > 100 µM
[45]
  GI50: 35.6 µM
  TGI: > 100 µM
[55]
  GI50: 63.2 µM
  TGI: > 100 µM
[12]
  GI50: 21.3 µM
  TGI: > 100 µM
[56]
  GI50: 16.3 µM
  TGI: > 100 µM
[13]
  GI50: 23.2 µM
  TGI: > 100 µM
[14]
  GI50: 23.4 µM
  TGI: > 100 µM
[57]
  GI50: 61.8 µM
  TGI: > 100 µM
[15]
  GI50: 23.7 µM
  TGI: > 100 µM
[16]
  GI50: 16.7 µM
  TGI: > 100 µM
[46]
  GI50: 15.6 µM
  TGI: > 100 µM
[17]
  GI50: 16 µM
  TGI: 92.2 µM
[19]
  GI50: 46 µM
  TGI: > 100 µM
[58]
  GI50: 6 µM
  TGI: 39 µM
[20]
  GI50: 26 µM
  TGI: > 100 µM
[21]
  GI50: 46.5 µM
  TGI: > 100 µM
[22]
  GI50: 92 µM
  TGI: > 100 µM
[47]
  GI50: 42.8 µM
  TGI: > 100 µM
[23]
  GI50: 45 µM
  TGI: > 100 µM
[48]
  GI50: 4.69 µM
  TGI: 64.4 µM
[49]
  GI50: > 100 µM
  TGI: > 100 µM
[24]
  GI50: 10.1 µM
  TGI: > 100 µM
[25]
  GI50: 83 µM
  TGI: > 100 µM
[50]
  GI50: 82.1 µM
  TGI: > 100 µM
[26]
  GI50: 27.5 µM
  TGI: > 100 µM
[59]
  GI50: 22.2 µM
  TGI: 82.4 µM
[27]
  GI50: 26.9 µM
  TGI: > 100 µM
[51]
  GI50: 33.2 µM
  TGI: > 100 µM
[28]
  GI50: 93.9 µM
  TGI: > 100 µM
[52]
  GI50: 21.1 µM
  TGI: > 100 µM
[29]
  GI50: 77.1 µM
  TGI: > 100 µM
[30]
  GI50: > 100 µM
  TGI: > 100 µM
[31]
  GI50: 13.3 µM
  TGI: > 100 µM
[53]
  GI50: 13.5 µM
  TGI: 43.4 µM
[32]
  GI50: 43.2 µM
  TGI: > 100 µM
[33]
  GI50: 23.3 µM
  TGI: > 100 µM
[34]
  GI50: > 100 µM
  TGI: > 100 µM
[35]
  GI50: > 100 µM
  TGI: > 100 µM
[36]
  GI50: 3.4 µM
  TGI: 26.7 µM
[54]
  GI50: 49.8 µM
  TGI: > 100 µM
[37]
  GI50: > 100 µM
  TGI: > 100 µM
[38]
  GI50: 13.9 µM
  TGI: > 100 µM
